Series [1] deals with Rattus norvegicus. Kind of series: Toxicity in glucocorticoid-induced Wistar rat osteoporosis model assessed as aspartate transaminase level at 0.05 ug/kg/day, po administered six times a week for 3 months (reference value: 177.55 +/- 116.98 U/L). The series is classed as organism-based. To be noted: in vivo, 5e-05 mg/kg.
Series [2] deals with Rattus norvegicus. Kind of series: Toxicity in glucocorticoid-induced Wistar rat osteoporosis model assessed as white blood cells at 0.05 ug/kg/day, po administered six times a week for 3 months (reference value: 6.28 +/- 2.78 x 10^9/L). The series is classed as organism-based. The note with it: in vivo, 5e-05 mg/kg.
For series [3], the system named is Rattus norvegicus. Kind of series: Toxicity in glucocorticoid-induced Wistar rat osteoporosis model assessed as neutrophilic granulocytes level at 0.05 ug/kg/day, po administered six times a week for 3 months (reference value: 31.95 +/- 8.33%). The series is classed as organism-based. The note with it: in vivo, 5e-05 mg/kg.
The test system of series [4] is Rattus norvegicus. Kind of series: Antiosteoporotic activity in glucocorticoid-induced Wistar rat osteoporosis model assessed as increase in trabecula thickness at 0.05 ug/kg/day, po administered six times a week for 3 months by toluidine blue staining-based light microscopic analysis relative to dexamethasone. Type of series: functional, organism-based.
The test system of series [5] is Rattus norvegicus. Kind of series: Antiosteoporotic activity in glucocorticoid-induced Wistar rat osteoporosis model assessed as mineral apposition rate at 0.05 ug/kg/day, po administered six times a week for 3 months by fluorescence assay (reference value: 1.06 +/- 0.27 micrometer/day). Type of series: functional.
Series [6] relates to Rattus norvegicus. The series can be described thus: Antiosteoporotic activity in glucocorticoid-induced Wistar rat osteoporosis model assessed as trabecula resorption surface at 0.05 ug/kg/day, po administered six times a week for 3 months by fluorescence assay (reference value: 7.22 +/- 2.04%). The series is classed as functional.
Series [7] deals with Rattus norvegicus. Kind of series: Toxicity in glucocorticoid-induced Wistar rat osteoporosis model assessed as triglycerides level at 0.05 ug/kg/day, po administered six times a week for 3 months (reference value: 1.13 +/- 0.69 mmol/L). The series is classed as organism-based. To be noted: in vivo, 5e-05 mg/kg.
For series [8], the system named is Rattus norvegicus. Kind of series: Toxicity in glucocorticoid-induced Wistar rat osteoporosis model assessed as lymph level at 0.05 ug/kg/day, po administered six times a week for 3 months (reference value: 50.35 +/- 12.96%). Type of series: organism-based. The note with it: in vivo, 5e-05 mg/kg.
In series [9] the test system is Rattus norvegicus. Kind of series: Antiosteoporotic activity in glucocorticoid-induced Wistar rat osteoporosis model assessed as trabecular bone volume at 0.05 ug/kg/day, po administered six times a week for 3 months by fluorescence assay (reference value: 33.09 +/- 5.15%). Type of series: functional, Trabecula.
The subject of series [10] is Rattus norvegicus. The series can be described thus: Antiosteoporotic activity in glucocorticoid-induced Wistar rat osteoporosis model assessed as increase in trabecula connectivity at 0.05 ug/kg/day, po administered six times a week for 3 months by toluidine blue staining-based light microscopic analysis relative to dexamethasone. The series is classed as functional, organism-based.

Series [11] has as its system Rattus norvegicus. Kind of series: Antiosteoporotic activity in glucocorticoid-induced Wistar rat osteoporosis model assessed as increase in trabecula number at 0.05 ug/kg/day, po administered six times a week for 3 months by toluidine blue staining-based light microscopic analysis relative to dexamethasone. Type of series: functional, organism-based.
In series [12] the test system is Rattus norvegicus. The series can be described thus: Antiosteoporotic activity in glucocorticoid-induced Wistar rat osteoporosis model assessed as trabecula formation surface at 0.05 ug/kg/day, po administered six times a week for 3 months by fluorescence assay (reference value: 7.82 +/- 2.46%). Type of series: functional.
For series [13], the system named is Rattus norvegicus. The series can be described thus: Antiosteoporotic activity in glucocorticoid-induced Wistar rat osteoporosis model assessed as increase in trabecula area at 0.05 ug/kg/day, po administered six times a week for 3 months by toluidine blue staining-based light microscopic analysis relative to dexamethasone. Type of series: functional, organism-based.

Series [14] has as its system Rattus norvegicus. The series can be described thus: Toxicity in glucocorticoid-induced Wistar rat osteoporosis model assessed as alanine transaminase level at 0.05 ug/kg/day, po administered six times a week for 3 months (reference value: 43.73 +/- 36.21 U/L). Type of series: organism-based. To be noted: in vivo, 5e-05 mg/kg.

Experimental findings from ChEMBL document CHEMBL3414511, “Synthesis of a novel class of substituted benzothiophene or benzofuran derivatives as BMP-2 up-regulators and evaluation of the BMP-2-up-regulating effects in vitro and the effects on glucocorticoid-induced osteoporosis in rats” (Eur J Med Chem, 2015) are described below.

Each structure is given as a SMILES string. Activity calls are given as the source filed them. No cut-off for these calls is given here.

In the case of `C=C1/C(=C\C=C2/CCC[C@]3(C)[C@@H]([C@H](C)CCCC(C)C)CC[C@@H]23)C[C@@H](O)C[C@@H]1O` [ALFACALCIDOL], the Activity with Rattus norvegicus [1] is 109.73 U/L; with Rattus norvegicus [2], 3.42 ×10⁹ /L; in the series with Rattus norvegicus [3], 48.13%; with Rattus norvegicus [5] it was 1.05 micrometer/day; in the series with Rattus norvegicus [6] it was 8.15%; in the series with Rattus norvegicus [7], 0.51 mmol/L. The Activity in the series with Rattus norvegicus [8] amounted to 34.83%; in the series on Rattus norvegicus [9] it was 28.54%; in the series on Rattus norvegicus [12], 6.72%; in the series on Rattus norvegicus [14], 30.64 U/L. Also, the outcome with Rattus norvegicus [4], in the series on Rattus norvegicus [10], with Rattus norvegicus [11] and in the series with Rattus norvegicus [13] was Active.
